Experimental findings from US8242118B2, “Arylsulfonamide derivatives for use as CCR3 antagonists in the treatment of inflammatory and immunological disorders” (Axikin Pharmaceuticals Inc., priority 2001, dated 2012) are described below.

The experiment concerns the target T1, Human CCR3 (Homo sapiens, UniProt P51677).
T1 construct: The cloned CCR3 cDNA was constructed with pcDNA3 vector and transfected into a IC562 cell line; expressed in transfected cells
T1 sequence (P51677 1-355): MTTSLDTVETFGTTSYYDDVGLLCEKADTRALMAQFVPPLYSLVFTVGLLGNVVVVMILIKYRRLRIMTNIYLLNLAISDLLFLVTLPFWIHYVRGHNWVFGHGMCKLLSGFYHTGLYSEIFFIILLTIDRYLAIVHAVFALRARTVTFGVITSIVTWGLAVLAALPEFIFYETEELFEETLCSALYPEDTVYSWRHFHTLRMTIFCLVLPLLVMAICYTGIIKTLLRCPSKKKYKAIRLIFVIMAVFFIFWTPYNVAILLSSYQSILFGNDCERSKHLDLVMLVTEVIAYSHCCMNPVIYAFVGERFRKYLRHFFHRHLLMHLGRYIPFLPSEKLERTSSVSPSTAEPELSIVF
As to the kind of experiment: Receptor binding assay (RBA), [125I]-eotaxin. The conditions noted are these: human CCR3-transformed K562 cells, 0.1 nM [125I]-eotaxin; compounds of about 40 to 90% purity; read-out: Activity grade RBA (IC50 class). The gist of the method:
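Butyrate-pretreated (5 mM, 20-24 h) CCR3-transfected K562 cells incubated 1 h at room temperature with compound and 0.1 nM final [125I]-eotaxin in HEPES pH 7.6 buffer; bound radioactivity counted after filtration. Non-specific binding with 500 nM unlabeled eotaxin; IC50 from inhibition curve.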

Molecules are shown by their SMILES. Some results are limits rather than exact numbers.

What is called IC50 is the midpoint of a concentration-inhibition curve. In the case of `Cl.O=[N+]([O-])c1ccc(Oc2cc(Cl)cc(Cl)c2)c(S(=O)(=O)N2CCNCC2)c1` [Example 1-33], the IC50 is under 1 µM.

Regarding `CCCCc1ccccc1Oc1ccc([N+](=O)[O-])cc1S(=O)(=O)N1CCNCC1.Cl` [Example 1-40], the IC50 was under 1 µM.

`Cl.O=[N+]([O-])c1ccc(Oc2cccc3ccccc23)c(S(=O)(=O)N2CCNCC2)c1` [Example 1-11]: the IC50 is 1 to 10 µM.
